What was measured:
[1] = system: Aβ42; experiment: Screening for γ-secretase-modulating activity, Method 1: Aβ42 sandwich ELISA on SKNBE2 cell media; assay type: cell-based; conditions: SKNBE2 cells carrying APP 695 wild type
In short: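 SKNBE2 cells expressing wild-type APP695 were treated with compound for 18 h in Ultraculture/1% glutamine. Secreted Aβ42 was quantified by sandwich ELISA (C-terminal capture, biotinylated 3D6, TMB, 450 nm), with WST-1 used as a toxicity check. IC50 was derived from 4-parameter fits of % inhibition or % of untreated control.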

[2] = system: Aβtotal; experiment: Screening for γ-secretase-modulating activity, Method 1: Aβtotal sandwich ELISA on SKNBE2 cell media; assay type: cell-based; conditions: SKNBE2 cells carrying APP 695 wild type
In short: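 SKNBE2 cells expressing wild-type APP 695 were treated with compound for 18 hours. Aβtotal in the medium was measured by sandwich ELISA (6E10 capture, biotinylated 4G8 detection, fluorogenic peroxidase read-out). IC50 came from a 4-parameter fit of % inhibition with top/bottom fixed at 100/0 and Hill slope 1, or as averaged IC50 from % of untreated control.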

[3] = system: Aβ42; experiment: In vivo efficacy Method 1: brain soluble Aβ42 by ELISA; design: species or system mouse; conditions: Table 4a, single oral dose, overnight fasted animals, sacrificed after 4 h, soluble fraction of brain homogenates
From the text: (§1) To determine whether acute administration of an Aβ42 lowering agent would reduce Aβ42 levels in vivo, non-transgenic rodents, e.g. mice or rats were used. Alternatively, two to three month old Tg2576 mice expressing APP695 containing the “Swedish” variant can be used or a transgenic mouse model developed by Dr. Fred Van Leuven (K.U. Leuven, Belgium) and co-workers, with neuron-specific expression of a clinical mutant of the human amyloid precursor protein [V717I] […] Young transgenic mice have high levels of Aβ in the brain but no detectable Aβ deposition. At approximately 6-8 months of age, the transgenic mice start to display spontaneous, progressive accumulation of β-amyloid (Aβ) in the brain, eventually resulting in amyloid plaques within the subiculum, hippocampus and cortex. Animals treated with the Aβ42 lowering agent were examined and compared to those untreated or treated with vehicle and brain levels of soluble Aβ42 and total Aβ would be quantitated by standard techniques, for example, using ELISA.
(§2) A typical protocol for measuring Aβ42 lowering in vivo is shown but it is only one of many variations that could be used to optimize the levels of detectable Aβ. For example, Aβ42 lowering compounds were formulated in 20% of Captisol® (a sulfobutyl ether of β-cyclodextrin) in water or 20% hydroxypropyl β cyclodextrin. The Aβ42 lowering agents were administered as a single oral dose or by any acceptable route of administration to overnight fasted animals. After 4 h, the animals were sacrificed and Aβ42 levels were analysed.
(§3) Blood was collected by decapitation and exsanguinations in EDTA-treated collection tubes. Blood was centrifuged at 1900 g for 10 minutes (min) at 4° C. and the plasma recovered and flash frozen for later analysis. The brain was removed from the cranium and hindbrain. The cerebellum was removed and the left and right hemisphere were separated. The left hemisphere was stored at −18° C. for quantitative analysis of test compound levels. The right hemisphere was rinsed with phosphate-buffered saline (PBS) buffer and immediately frozen on dry ice and stored at −80° C. until homogenization for biochemical assays.
(§4) All samples were sonicated for 30 seconds on ice at 20% power output (pulse mode). Homogenates were centrifuged at 221.300×g for 50 min. The resulting high speed supernatants were then transferred to fresh tubes and were optionally further purified before the next step. A portion of the supernatant was neutralized with 10% 0.5 M Tris-HCl and this was used to quantify Aβtotal.
(§5) The obtained supernatants were purified with Water Oasis HLB reverse phase columns (Waters Corp., Milford, Mass.) to remove non-specific immunoreactive material from the brain lysates prior subsequent Aβ detection. Using a vacuum manifold, all solutions were passed through the columns at a rate of approximately 1 ml per min, so the vacuum pressure was adjusted accordingly throughout the procedure. Columns were preconditioned with 1 ml of 100% MeOH, before equilibration with 1 ml of H2O, Non-neutralized brain lysates were loaded onto the columns. The loaded samples were then washed twice with the first wash performed with 1 ml of 5% MeOH, and the second wash with 1 ml of 30% MeOH. Finally, the Aβ was eluted from the columns and into 100×30 mm glass tubes, with a solution of 90% MeOH with 2% NH4OH. The eluate was then transferred into 1.5 ml tubes and concentrated in a speed-vac concentrator on high heat for about 1.5-2 h at 70° C. The concentrated Aβ was then resuspended in UltraCULTURE General Purpose Serum-Free Medium (Cambrex Corp., Walkersville, Md.) plus Protease Inhibitors added.
To quantify the amount of Aβ42 in the soluble fraction of the brain homogenates, commercially available Enzyme-Linked-Immunosorbent-Assay (ELISA) kits were used (e.g. Innotest® β-Amyloid(1-42), Innogenetics N.V., Ghent, Belgium). The Aβ42 ELISA was performed using the plate provided with the kit only.

[4] = system: Aβtotal; experiment: In vivo efficacy Method 1: brain soluble Aβtotal by ELISA; design: species or system mouse; conditions: Table 4a, single oral dose, overnight fasted animals, sacrificed after 4 h, soluble fraction of brain homogenates
From the text: as §1, §2, §3, §4
as §5, with “added. […]” for “added.”

[5] = Homo sapiens, Table 3a, 18 hours, XLfit, top/bottom fixed to 100 and 0, hill slope 1
[6] = Homo sapiens, Table 3b, non-linear regression of % of control, averaged IC50 values
[7] = Table 3a, 18 hours, XLfit, top/bottom fixed to 100 and 0, hill slope 1
[8] = Table 3b, non-linear regression of % of control, averaged IC50 values

Compound	IC50 [1, 5] [nM]	IC50 [1, 6] [nM]	IC50 [2, 5] [nM]	IC50 [2, 6] [nM]	Aβ42 (% Ctrl) _Mean [3] [% Ctrl]	Aβtotal (% Ctrl) _Mean [4] [% Ctrl]	IC50 [1, 7] [nM]	IC50 [1, 8] [nM]	IC50 [2, 7] [nM]	IC50 [2, 8] [nM]
COc1cc(Nc2cccc3[nH]c(-c4ccccc4C)nc23)ccc1-n1cnc(C)c1 [Compound 45]	15	13	> 1000	> 3000	93	94				
Cc1cn(-c2ccc(Nc3nccc4c3nc(-c3ccc(F)cc3F)n4C)cc2F)cn1 [Compound 104]					65	110	50	44	> 3000	> 3000
COc1cc(-c2nc3c(Nc4ccc(-n5cnc(C)n5)c(OC)c4)cccc3n2C)ccc1Cl [Compound 85]					71	93	10	10	> 1000	> 3000
Cc1ncnn1-c1ccc(Nc2nccc3c2nc(-c2ccc(F)cc2)n3C)cc1F [Compound 97]					96	96	435	398	> 3000	> 10000
COc1cc(Nc2cccc3oc(CC(C)C)nc23)ccc1-n1cnc(C)c1 [Compound 18]	101	102	> 5000	> 10000	81	95				
COc1cc(Nc2cccc3oc(Cc4ccc(F)cc4)nc23)ccc1-n1cnc(C)c1 [Compound 82]					85	96	147	141	> 3000	> 3000
Cc1cn(-c2ccc(Nc3cccc4c3nc(-c3ccc(F)cc3)n4C)cc2)cn1 [Compound 7]	22	23	> 1000	> 3000	58	89				
Cc1ncn(-c2ccc(Nc3cccc4c3nc(-c3ccc(F)cc3)n4C)cn2)n1 [Compound 70]					64	99	50	37	> 3000	> 3000
COc1cc(Nc2cccc3c2nc(-c2ccc(F)cc2)n3C)ccc1-n1cnc(Br)c1 [Compound 71]					88	102	28	28	> 1000	> 3000
COc1cc(Nc2cccc3c2nc(-c2ccc(F)cc2F)n3C)ccc1-n1cnc(C)c1 [Compound 3]	13	13	> 1000	> 3000	46	87				
COc1cc(Nc2cccc3c2nc(N2CC(C)OC(C)C2)n3C)ccc1-n1cnc(C)c1 (stereo not drawn) [Compound 44]					91	101	135	135	> 5000	> 5000
COc1cc(Nc2cccc3oc(-c4ccc(F)cc4)nc23)ccc1-n1cnc(C)c1 [Compound 80]					97	102	1850	1740	> 30000	> 10000
COc1cc(Nc2cccc3c2nc(C2CCCCC2)n3C)ccc1-n1cnc(C)c1 [Compound 38]					72	101	104	126	> 3000	> 3000
Cc1cn(-c2ccc(Nc3cccc4c3nc(-c3ccc(F)cc3)n4C)nc2)cn1 [Compound 5]	31	30	> 3000	> 3000	62	94				
Cc1cn(-c2ccc(Nc3cccc4c3nc(-c3ccc(F)cc3)n4C)nn2)cn1 [Compound 95]					85	95	331	331	> 10000	> 10000
COc1cc(Nc2cccc3c2nc(-c2ccc(F)cc2)n3C)ccc1-n1ncnc1C [Compound 91]					68	94	36	33	> 3000	> 3000
COCCn1c(-c2cccc(OC)c2)nc2c(Nc3ccc(-n4cnc(C)c4)c(OC)c3)cccc21.Cl.Cl [Compound 54]					71	96	20	25	> 1000	> 3000

— patent publication US8772504B2, “Substituted benzoxazole, benzimidazole, oxazolopyridine and imidazopyridine derivatives as gamma secretase modulators” (Janssen Pharmaceuticals, Inc., priority 2009, dated 2014)
